Data published in ChEMBL document CHEMBL3826972, “Spirostanol saponins from Tacca vietnamensis and their anti-inflammatory activity” (Bioorg Med Chem Lett, 2016).
The source made the active and inactive calls. No cut-off for these calls is given here.

Columns and labels:
[1] = Cytotoxicity against mouse BV2 cells assessed as cell viability at 80 uM; assay type: cell-based, BV-2; settings: read-out: Activity
[2] = Cytotoxicity against mouse RAW264.7 cells assessed as cell viability at 80 uM; assay type: cell-based; settings: read-out: Activity
[3] = system: BV-2; test: Inhibition of LPS-induced NO production in mouse BV2 cells by Griess assay; assay type: functional, cell-based
[4] = system: RAW264.7; test: Inhibition of LPS-induced NO production in mouse RAW264.7 cells by Griess assay; assay type: functional, cell-based
[5] = system: RAW264.7; test: Inhibition of LPS-induced NO production in mouse RAW264.7 cells at 80 uM by Griess assay; assay type: functional
[6] = system: BV-2; test: Inhibition of LPS-induced NO production in mouse BV2 cells at 80 uM by Griess assay; assay type: functional

| IC50 [3] [µM] | IC50 [4] [µM] | SMILES | viability at 80 µM [1] [%] | viability at 80 µM [2] [%] | inhibition at 80 µM [5] [%] | inhibition at 80 µM [6] [%] | inhibition [5] | inhibition [6] |
| --- | --- | --- | --- | --- | --- | --- | --- | --- |
|  |  | C[C@H]1CC[C@@]2(OC1)O[C@@H]1C[C@@H]3[C@H]4CC=C5C[C@H](O[C@H]6O[C@@H](CO)[C@H](O)[C@@H](O[C@H]7O[C@H](C)[C@@H](O[C@@H]8O[C@H](CO)[C@@H](O)[C@H](O)[C@H]8O)[C@H](O)[C@@H]7O)[C@@H]6O[C@H]6O[C@H](C)[C@@H](O)[C@H](O)[C@@H]6O)CC[C@@]5(C)[C@@H]4CC[C@@]3(C)[C@@H]1[C@H]2C | < 50 | < 50 |  |  |  |  |
| > 80 | > 80 | C[C@@H]1O[C@@H](O[C@H]2[C@H](O[C@H]3CC[C@@]4(C)C(=CC[C@H]5[C@@H]6C[C@@H]7OC8(OC[C@](C)(O)C[C@@H]8O)[C@@H](C)[C@@H]7[C@@]6(C)CC[C@@H]54)C3)O[C@H](CO)[C@@H](O)[C@@H]2O[C@@H]2O[C@@H](C)[C@H](O)[C@@H](O)[C@H]2O)[C@H](O)[C@H](O)[C@H]1O (single isomer, unassigned) |  |  | < 50 | < 50 |  |  |
| > 80 | > 80 | C[C@@H]1COC2(C[C@@H]1O)O[C@H]1C[C@H]3[C@@H]4CC=C5C[C@@H](O[C@@H]6O[C@H](CO)[C@@H](O)[C@H](O[C@@H]7O[C@@H](C)[C@H](O)[C@@H](O)[C@H]7O)[C@H]6O[C@@H]6O[C@@H](C)[C@H](O)[C@@H](O)[C@H]6O)CC[C@]5(C)[C@H]4CC[C@]3(C)[C@H]1[C@@H]2C (single isomer, unassigned) |  |  | < 50 | < 50 |  |  |
| 52.1 | 60.7 | C[C@@H]1CO[C@]2(O[C@H]3C[C@@H]4[C@@H]5CC=C6C[C@@H](O[C@@H]7O[C@H](CO)[C@@H](O)[C@H](O[C@@H]8O[C@@H](C)[C@H](O)[C@@H](O)[C@H]8O)[C@H]7O[C@@H]7O[C@@H](C)[C@H](O)[C@@H](O)[C@H]7O)CC[C@]6(C)[C@H]5CC[C@]4(C)[C@H]3[C@@H]2C)[C@@H](O)[C@@H]1O (stereo in doubt) |  |  |  |  | Active | Active |
| > 80 | > 80 | C[C@@H]1O[C@@H](O[C@H]2[C@H](O[C@@H]3CC[C@]4(C)C(=CC[C@@H]5[C@H]6C[C@H]7O[C@@]8(OC[C@](C)(O)C[C@H]8O)[C@H](C)[C@H]7[C@]6(C)CC[C@H]54)C3)O[C@H](CO)[C@@H](O)[C@@H]2O[C@@H]2O[C@@H](C)[C@H](O[C@@H]3O[C@H](CO)[C@@H](O)[C@H](O)[C@H]3O)[C@@H](O)[C@H]2O)[C@H](O)[C@H](O)[C@H]1O (stereo in doubt) |  |  | < 50 | < 50 |  |  |
| 43.7 | 37 | C[C@@H]1CO[C@@]2(O[C@@H]3C[C@@H]4[C@H]5CC=C6C[C@H](O[C@@H]7O[C@H](CO)[C@@H](O)[C@H](O[C@@H]8O[C@@H](C)[C@H](O[C@@H]9O[C@H](CO)[C@@H](O)[C@H](O)[C@H]9O)[C@@H](O)[C@H]8O)[C@H]7O[C@@H]7O[C@@H](C)[C@H](O)[C@@H](O)[C@H]7O)CC[C@@]6(C)[C@@H]5CC[C@@]4(C)[C@@H]3[C@H]2C)[C@H](O)C1 (stereo in doubt) |  |  |  |  | Active | Active |
| > 80 | > 80 | C[C@@H]1CO[C@]2(C[C@@H]1O)O[C@@H]1C[C@@H]3[C@H]4CC=C5C[C@H](O[C@@H]6O[C@H](CO)[C@@H](O)[C@H](O[C@@H]7O[C@@H](C)[C@H](O[C@@H]8O[C@H](CO)[C@@H](O)[C@H](O)[C@H]8O)[C@@H](O)[C@H]7O)[C@H]6O[C@@H]6O[C@@H](C)[C@H](O)[C@@H](O)[C@H]6O)CC[C@@]5(C)[C@@H]4CC[C@@]3(C)[C@@H]1[C@H]2C (stereo in doubt) |  |  | < 50 | < 50 |  |  |
| 47.3 | 58.2 | C[C@@H]1CO[C@@]2(O[C@@H]3C[C@@H]4[C@H]5CC=C6C[C@H](O[C@@H]7O[C@H](CO)[C@@H](O)[C@H](O[C@@H]8O[C@@H](C)[C@H](O[C@@H]9O[C@H](CO)[C@@H](O)[C@H](O)[C@H]9O)[C@@H](O)[C@H]8O)[C@H]7O[C@@H]7O[C@@H](C)[C@H](O)[C@@H](O)[C@H]7O)CC[C@@]6(C)[C@@H]5CC[C@@]4(C)[C@@H]3[C@H]2C)[C@H](O)[C@@H]1O (stereo in doubt) |  |  |  |  | Active | Active |
| 4.3 | 5.3 | O=C(/C=C/c1ccc(O)c(O)c1)c1ccc(O)cc1O [BUTEIN] |  |  |  |  |  |  |
